Structures are written as SMILES. *1 amine or outer side, *2 acyl side, *3 side chain or, on linkers, in order; H or OH if unused. Where a SMILES comes first, the peptide text is derived from it. [ ]: non-standard residue; d: D form. The star is where a group is joined. Pro(3R,4S-CMe2) = CC1(C)[C@@H]2[C@@H](C(=O)O)NC[C@@H]21; X1 = CN(C[C@@H](N*)C(C)(C)C)S(C)(=O)=O; Abu(4,4-F2) = N[C@@H](CC(F)F)C(=O)O; Phe(ol) = N[C@H](CO)Cc1ccccc1; Tle = CC(C)(C)[C@H](N)C(=O)O; CO = O=C([*:1])[*:2]

The target in this experiment is T1, HCV NS3/NS4a serine protease (Hepatitis C virus genotype 1b, UniProt P26663).
T1 construct: amino terminus of the NS3 protease domain (amino acids 3-181) with a tetrapeptide linker; made in house; host or cells: E. coli
T1 sequence (P26663 1013-1207, looked up, natural form): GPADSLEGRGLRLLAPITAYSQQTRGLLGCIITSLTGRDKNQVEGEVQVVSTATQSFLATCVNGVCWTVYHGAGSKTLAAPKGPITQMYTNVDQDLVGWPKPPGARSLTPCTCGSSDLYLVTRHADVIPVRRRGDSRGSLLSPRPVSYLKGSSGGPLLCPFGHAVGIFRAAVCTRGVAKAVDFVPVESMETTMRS
Description: Spectrophotometric assay for HCV protease inhibitory activity (chromogenic ester substrates). Type of experiment: biochemical, hepatitis C virus (strain 1b). The settings on record: Ki, Table 3; rating; single chain NS4A21-32-GSGS-NS3 3-181 protease, 30° C., pH 6.5. The essentials: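 Single-chain NS4A(21-32)-GSGS-NS3(3-181) protease (genotype 1b) from E. coli was used at 1.3 nM in 25 mM MOPS pH 6.5 with 300 mM NaCl, 30 °C and 4% DMSO. Chromogenic ester substrate cleavage was followed as PAP release at 370 nm over 60 min. Ki was derived from vo/vi versus [I] plots assuming competitive inhibition.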
Regarding `CCOC(=O)N1CCC(NC(=O)[C@H](CC(F)F)NC(=O)[C@@H]2[C@@H]3[C@H](CN2C(=O)[C@@H](NC(=O)N[C@H](CN(C)S(C)(=O)=O)C(C)(C)C)C(C)(C)C)C3(C)C)CC1` [Example 227], the Ki is > 500 nM.

Regarding `CN(C[C@@H](NC(=O)N[C@H](C(=O)N1C[C@H]2[C@@H]([C@H]1C(=O)N[C@@H](CC(F)F)C(=O)NCC(c1ccccc1)c1ccccc1)C2(C)C)C(C)(C)C)C(C)(C)C)S(C)(=O)=O` [Example 228], the Ki is > 500 nM.

As to `CN(C[C@@H](NC(=O)N[C@H](C(=O)N1C[C@H]2[C@@H]([C@H]1C(=O)N[C@@H](CC(F)F)C(=O)NCCC(c1ccccc1)c1ccccc1)C2(C)C)C(C)(C)C)C(C)(C)C)S(C)(=O)=O` [Example 229], the Ki was > 500 nM.

Regarding `CC(CO)NC(=O)[C@H](CC(F)F)NC(=O)[C@@H]1[C@@H]2[C@H](CN1C(=O)[C@@H](NC(=O)N[C@H](CN(C)S(C)(=O)=O)C(C)(C)C)C(C)(C)C)C2(C)C` (stereo partly drawn) [Example 230], the Ki was > 500 nM.

`CC(O)CNC(=O)[C@H](CC(F)F)NC(=O)[C@@H]1[C@@H]2[C@H](CN1C(=O)[C@@H](NC(=O)N[C@H](CN(C)S(C)(=O)=O)C(C)(C)C)C(C)(C)C)C2(C)C` (stereo partly drawn) [Example 231]: the Ki is > 500 nM.

`CC(C)[C@@H](CO)NC(=O)[C@H](CC(F)F)NC(=O)[C@@H]1[C@@H]2[C@H](CN1C(=O)[C@@H](NC(=O)N[C@H](CN(C)S(C)(=O)=O)C(C)(C)C)C(C)(C)C)C2(C)C` [Example 232]: the Ki was > 500 nM.

With `CN(C[C@@H](NC(=O)N[C@H](C(=O)N1C[C@H]2[C@@H]([C@H]1C(=O)N[C@@H](CC(F)F)C(=O)NCc1ccccn1)C2(C)C)C(C)(C)C)C(C)(C)C)S(C)(=O)=O` [Example 233], the Ki is > 500 nM.

`CCN(CC)CCNC(=O)[C@H](CC(F)F)NC(=O)[C@@H]1[C@@H]2[C@H](CN1C(=O)[C@@H](NC(=O)N[C@H](CN(C)S(C)(=O)=O)C(C)(C)C)C(C)(C)C)C2(C)C` [Example 234]: the Ki was > 500 nM.

With `CN(C[C@@H](NC(=O)N[C@H](C(=O)N1C[C@H]2[C@@H]([C@H]1C(=O)N[C@@H](CC(F)F)C(=O)NCCc1ccccn1)C2(C)C)C(C)(C)C)C(C)(C)C)S(C)(=O)=O` [Example 235], the inhibition constant (Ki) was 100 to 500 nM.

As for `CN(C[C@@H](NC(=O)N[C@H](C(=O)N1C[C@H]2[C@@H]([C@H]1C(=O)N[C@@H](CC(F)F)C(=O)NCCc1cccnc1)C2(C)C)C(C)(C)C)C(C)(C)C)S(C)(=O)=O` [Example 236], the Ki was < 100 nM.

Turning to `CN(C[C@@H](NC(=O)N[C@H](C(=O)N1C[C@H]2[C@@H]([C@H]1C(=O)N[C@@H](CC(F)F)C(=O)NCCc1ccncc1)C2(C)C)C(C)(C)C)C(C)(C)C)S(C)(=O)=O` [Example 237], the Ki was < 100 nM.

`CN(C[C@@H](NC(=O)N[C@H](C(=O)N1C[C@H]2[C@@H]([C@H]1C(=O)N[C@@H](CC(F)F)C(=O)NCCCn1cccc1)C2(C)C)C(C)(C)C)C(C)(C)C)S(C)(=O)=O` [Example 238]: the Ki is > 500 nM.

`CN(C[C@@H](NC(=O)N[C@H](C(=O)N1C[C@H]2[C@@H]([C@H]1C(=O)N[C@@H](CC(F)F)C(=O)NCCCn1ccnc1)C2(C)C)C(C)(C)C)C(C)(C)C)S(C)(=O)=O` [Example 239]: the Ki was > 500 nM.

For `CN(C[C@@H](NC(=O)N[C@H](C(=O)N1C[C@H]2[C@@H]([C@H]1C(=O)N[C@@H](CC(F)F)C(=O)NCCN1CCOCC1)C2(C)C)C(C)(C)C)C(C)(C)C)S(C)(=O)=O` [Example 240], the Ki is > 500 nM.

As to `CN(C)CC(C)(C)CNC(=O)[C@H](CC(F)F)NC(=O)[C@@H]1[C@@H]2[C@H](CN1C(=O)[C@@H](NC(=O)N[C@H](CN(C)S(C)(=O)=O)C(C)(C)C)C(C)(C)C)C2(C)C` [Example 241], the inhibition constant Ki was > 500 nM.

In the case of `CN(C[C@@H](NC(=O)N[C@H](C(=O)N1C[C@H]2[C@@H]([C@H]1C(=O)N[C@@H](CC(F)F)C(=O)NCCCN1CCOCC1)C2(C)C)C(C)(C)C)C(C)(C)C)S(C)(=O)=O` [Example 242], the Ki was > 500 nM.

`CN(C[C@@H](NC(=O)N[C@H](C(=O)N1C[C@H]2[C@@H]([C@H]1C(=O)N[C@@H](CC(F)F)C(=O)NC1CCN(Cc3ccccc3)CC1)C2(C)C)C(C)(C)C)C(C)(C)C)S(C)(=O)=O` [Example 243]: the Ki is > 500 nM.

On to `CN(C[C@@H](NC(=O)N[C@H](C(=O)N1C[C@H]2[C@@H]([C@H]1C(=O)N[C@@H](CC(F)F)C(=O)NCCc1c[nH]cn1)C2(C)C)C(C)(C)C)C(C)(C)C)S(C)(=O)=O` [Example 244], for which the Ki is > 500 nM.

Take `CN(C[C@@H](NC(=O)N[C@H](C(=O)N1C[C@H]2[C@@H]([C@H]1C(=O)N[C@@H](CC(F)F)C(=O)NCCc1ccc(O)cc1)C2(C)C)C(C)(C)C)C(C)(C)C)S(C)(=O)=O` [Example 245]: the Ki is < 100 nM.

As for `CN(C[C@@H](NC(=O)N[C@H](C(=O)N1C[C@H]2[C@@H]([C@H]1C(=O)N[C@@H](CC(F)F)C(=O)NCC(O)c1ccccc1)C2(C)C)C(C)(C)C)C(C)(C)C)S(C)(=O)=O` (stereo partly drawn) [Example 246], the Ki was 100 to 500 nM.

Consider `CN(C[C@@H](NC(=O)N[C@H](C(=O)N1C[C@H]2[C@@H]([C@H]1C(=O)N[C@@H](CC(F)F)C(=O)N[C@@H]1c3ccccc3C[C@@H]1O)C2(C)C)C(C)(C)C)C(C)(C)C)S(C)(=O)=O` [Example 247], for which the Ki was > 500 nM.

Regarding `C[C@H](NC(=O)[C@H](CC(F)F)NC(=O)[C@@H]1[C@@H]2[C@H](CN1C(=O)[C@@H](NC(=O)N[C@H](CN(C)S(C)(=O)=O)C(C)(C)C)C(C)(C)C)C2(C)C)[C@H](O)c1ccccc1` [Example 248], the Ki was < 100 nM.

Turning to `CN(C[C@@H](NC(=O)N[C@H](C(=O)N1C[C@H]2[C@@H]([C@H]1C(=O)N[C@@H](CC(F)F)C(=O)N[C@H](CO)Cc1ccccc1)C2(C)C)C(C)(C)C)C(C)(C)C)S(C)(=O)=O` [Example 249] ({X1-CO}-[Tle][Pro(3R,4S-CMe2)][Abu(4,4-F2)][Phe(ol)]), the Ki was > 500 nM.

As to `CN(C[C@@H](NC(=O)N[C@H](C(=O)N1C[C@H]2[C@@H]([C@H]1C(=O)N[C@@H](CC(F)F)C(=O)NCCc1ccc(Cl)cc1)C2(C)C)C(C)(C)C)C(C)(C)C)S(C)(=O)=O` [Example 250], the Ki was < 100 nM.

Take `CN(C[C@@H](NC(=O)N[C@H](C(=O)N1C[C@H]2[C@@H]([C@H]1C(=O)N[C@@H](CC(F)F)C(=O)NCCc1ccccc1Cl)C2(C)C)C(C)(C)C)C(C)(C)C)S(C)(=O)=O` [Example 251]: the Ki is < 100 nM.

Consider `CN(C[C@@H](NC(=O)N[C@H](C(=O)N1C[C@H]2[C@@H]([C@H]1C(=O)N[C@@H](CC(F)F)C(=O)NCCc1c[nH]c3ccccc13)C2(C)C)C(C)(C)C)C(C)(C)C)S(C)(=O)=O` [Example 252], for which the Ki is < 100 nM.

Take `CN(C[C@@H](NC(=O)N[C@H](C(=O)N1C[C@H]2[C@@H]([C@H]1C(=O)N[C@@H](CC(F)F)C(=O)NCCS(=O)(=O)C(C)(C)C)C2(C)C)C(C)(C)C)C(C)(C)C)S(C)(=O)=O` [Example 253]: the Ki is > 500 nM.

Consider `CN(C[C@@H](NC(=O)N[C@H](C(=O)N1C[C@H]2[C@@H]([C@H]1C(=O)N[C@@H](CC(F)F)C(=O)N[C@@H]1CCC[C@H]1OCc1ccccc1)C2(C)C)C(C)(C)C)C(C)(C)C)S(C)(=O)=O` [Example 254], for which the Ki is > 500 nM.

For the molecule `CN(C[C@@H](NC(=O)N[C@H](C(=O)N1C[C@H]2[C@@H]([C@H]1C(=O)N[C@@H](CC(F)F)C(=O)N[C@H]1CCCC[C@@H]1OCc1ccccc1)C2(C)C)C(C)(C)C)C(C)(C)C)S(C)(=O)=O` [Example 255], the inhibitory constant (Ki) is > 500 nM.

`CN(C[C@@H](NC(=O)N[C@H](C(=O)N1C[C@H]2[C@@H]([C@H]1C(=O)N[C@@H](CC(F)F)C(=O)N[C@H]1CCCC[C@H]1OCc1ccccc1)C2(C)C)C(C)(C)C)C(C)(C)C)S(C)(=O)=O` [Example 256]: the Ki is > 500 nM.

For the molecule `CN(C[C@@H](NC(=O)N[C@H](C(=O)N1C[C@H]2[C@@H]([C@H]1C(=O)N[C@@H](CC(F)F)C(=O)NS(=O)(=O)c1ccccc1)C2(C)C)C(C)(C)C)C(C)(C)C)S(C)(=O)=O` [Example 257], the Ki is > 500 nM.

As to `CN(C[C@@H](NC(=O)N[C@H](C(=O)N1C[C@H]2[C@@H]([C@H]1C(=O)N[C@@H](CC(F)F)C(=O)NCCc1ccccc1)C2(C)C)C(C)(C)C)C(C)(C)C)S(C)(=O)=O` [Example 258], the Ki was < 100 nM.

With `Cc1ccccc1CCNC(=O)[C@H](CC(F)F)NC(=O)[C@@H]1[C@@H]2[C@H](CN1C(=O)[C@@H](NC(=O)N[C@H](CN(C)S(C)(=O)=O)C(C)(C)C)C(C)(C)C)C2(C)C` [Example 259], the Ki was < 100 nM.

`Cc1cccc(CCNC(=O)[C@H](CC(F)F)NC(=O)[C@@H]2[C@@H]3[C@H](CN2C(=O)[C@@H](NC(=O)N[C@H](CN(C)S(C)(=O)=O)C(C)(C)C)C(C)(C)C)C3(C)C)c1` [Example 260]: the Ki was < 100 nM.

Consider `Cc1ccc(CCNC(=O)[C@H](CC(F)F)NC(=O)[C@@H]2[C@@H]3[C@H](CN2C(=O)[C@@H](NC(=O)N[C@H](CN(C)S(C)(=O)=O)C(C)(C)C)C(C)(C)C)C3(C)C)cc1` [Example 261], for which the Ki is < 100 nM.

Regarding `CN(C[C@@H](NC(=O)N[C@H](C(=O)N1C[C@H]2[C@@H]([C@H]1C(=O)N[C@@H](CC(F)F)C(=O)NCCc1ccc(N)cc1)C2(C)C)C(C)(C)C)C(C)(C)C)S(C)(=O)=O` [Example 262], the Ki was < 100 nM.

As to `CN(C[C@@H](NC(=O)N[C@H](C(=O)N1C[C@H]2[C@@H]([C@H]1C(=O)N[C@@H](CC(F)F)C(=O)NCCc1ccccc1F)C2(C)C)C(C)(C)C)C(C)(C)C)S(C)(=O)=O` [Example 263], the Ki is < 100 nM.

Regarding `CN(C[C@@H](NC(=O)N[C@H](C(=O)N1C[C@H]2[C@@H]([C@H]1C(=O)N[C@@H](CC(F)F)C(=O)NCCc1cccc(F)c1)C2(C)C)C(C)(C)C)C(C)(C)C)S(C)(=O)=O` [Example 264], the Ki is < 100 nM.

For `CN(C[C@@H](NC(=O)N[C@H](C(=O)N1C[C@H]2[C@@H]([C@H]1C(=O)N[C@@H](CC(F)F)C(=O)NCCc1ccc(F)cc1)C2(C)C)C(C)(C)C)C(C)(C)C)S(C)(=O)=O` [Example 265], the Ki was < 100 nM.
